Starred links: 1 amine or outer side, 2 acyl side, 3 side chain; linkers in the order of their positions; H or OH if unused. Positions of bridges follow the written chain, without caps; N, C: chain ends. Non-standard residues stand in square brackets, D forms with d. Residues, ends and D or L forms follow the SMILES beside them. hCys = N[C@@H](CCS)C(=O)O; Dab = NCC[C@H](N)C(=O)O; X2 = O=C(C[*:1])[*:2]

Series [1] is described as follows: Evaluation of molecule stability (alkali treatment, residual rate by LC/MS). The class given is physicochemical. The settings on record: 500 μM peptide aqueous solution plus equivalent of 1 M sodium hydroxide, 15° C., 3 hours, LC/MS peak area. In short, it runs like this: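 Stability read as percent of summed LC/MS peak area remaining versus untreated peptide (C18, 45 °C, 10 mM ammonium formate pH 3, ESI positive/negative). Treatment: 500 μM peptide in water plus an equivalent of 1 M NaOH, 15 °C for 3 hours.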

Series [2] deals with human integrin αvβ5 (Homo sapiens, UniProt P06756+P18084). Description: Evaluation of integrin binding property (surface plasmon resonance, Biacore 3000, immobilized cyclic peptide). The settings on record: SPR, 25° C., HEPES buffer with 5 mM magnesium chloride, integrin 30-1,000 nM; read-out: Performance evaluation: Binding activity (dissociation constant between the cyclic peptide and human integrin αvβ5). In outline:
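Human αvβ5 (30-1,000 nM) flowed for 10 min at 25 °C over immobilized cyclic peptide in 20 mM HEPES, 150 mM NaCl, 5 mM MgCl2, pH 7.4, followed by 30 min running buffer and 0.5 M EDTA regeneration. Dissociation constant from peptide minus unimmobilized channel, scored into standard grades.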

human integrin αvβ5, sequence (P06756 31-1048): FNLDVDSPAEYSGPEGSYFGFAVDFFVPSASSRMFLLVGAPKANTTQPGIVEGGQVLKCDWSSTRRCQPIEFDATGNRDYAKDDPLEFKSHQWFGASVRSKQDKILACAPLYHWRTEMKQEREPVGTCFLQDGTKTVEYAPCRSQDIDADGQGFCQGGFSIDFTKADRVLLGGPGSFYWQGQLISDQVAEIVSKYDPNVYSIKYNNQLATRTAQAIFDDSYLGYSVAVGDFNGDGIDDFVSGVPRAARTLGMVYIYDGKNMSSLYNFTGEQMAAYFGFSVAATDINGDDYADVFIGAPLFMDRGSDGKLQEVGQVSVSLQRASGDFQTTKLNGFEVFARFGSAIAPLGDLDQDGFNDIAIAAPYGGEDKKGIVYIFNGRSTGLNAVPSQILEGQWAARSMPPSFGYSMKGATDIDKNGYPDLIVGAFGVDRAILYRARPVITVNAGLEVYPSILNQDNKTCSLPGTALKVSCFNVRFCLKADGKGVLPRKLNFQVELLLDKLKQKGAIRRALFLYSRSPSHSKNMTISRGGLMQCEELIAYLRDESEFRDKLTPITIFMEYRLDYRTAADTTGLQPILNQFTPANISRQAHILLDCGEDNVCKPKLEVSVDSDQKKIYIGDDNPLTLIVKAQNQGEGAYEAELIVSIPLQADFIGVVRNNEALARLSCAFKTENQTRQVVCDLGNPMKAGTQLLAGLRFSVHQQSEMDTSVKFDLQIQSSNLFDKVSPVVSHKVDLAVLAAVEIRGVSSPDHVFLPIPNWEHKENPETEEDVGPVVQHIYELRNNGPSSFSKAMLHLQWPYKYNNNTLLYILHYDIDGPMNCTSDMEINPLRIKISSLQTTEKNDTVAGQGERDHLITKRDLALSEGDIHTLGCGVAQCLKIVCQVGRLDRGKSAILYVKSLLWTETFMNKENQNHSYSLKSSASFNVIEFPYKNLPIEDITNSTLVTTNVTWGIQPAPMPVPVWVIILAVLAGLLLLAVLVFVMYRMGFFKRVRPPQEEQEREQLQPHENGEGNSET
human integrin αvβ5, sequence (P18084 24-799): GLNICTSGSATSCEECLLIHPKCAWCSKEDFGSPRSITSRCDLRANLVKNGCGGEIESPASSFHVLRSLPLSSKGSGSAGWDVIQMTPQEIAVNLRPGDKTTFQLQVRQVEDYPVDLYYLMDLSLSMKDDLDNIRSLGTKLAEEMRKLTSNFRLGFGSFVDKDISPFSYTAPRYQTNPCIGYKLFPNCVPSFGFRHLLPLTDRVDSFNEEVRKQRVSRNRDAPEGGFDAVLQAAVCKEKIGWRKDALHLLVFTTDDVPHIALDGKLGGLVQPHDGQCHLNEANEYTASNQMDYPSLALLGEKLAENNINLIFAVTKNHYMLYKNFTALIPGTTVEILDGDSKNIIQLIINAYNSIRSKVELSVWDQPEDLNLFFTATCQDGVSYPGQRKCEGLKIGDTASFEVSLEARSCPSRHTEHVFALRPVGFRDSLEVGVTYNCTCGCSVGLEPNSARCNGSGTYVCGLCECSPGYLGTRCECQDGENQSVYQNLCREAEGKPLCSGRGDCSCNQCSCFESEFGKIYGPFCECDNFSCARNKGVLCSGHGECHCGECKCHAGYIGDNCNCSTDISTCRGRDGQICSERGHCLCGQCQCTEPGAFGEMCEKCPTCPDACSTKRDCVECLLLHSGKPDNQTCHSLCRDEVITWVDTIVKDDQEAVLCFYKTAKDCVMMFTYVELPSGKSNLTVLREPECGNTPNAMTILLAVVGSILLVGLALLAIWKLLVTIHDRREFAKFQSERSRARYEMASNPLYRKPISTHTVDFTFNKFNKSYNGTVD

As for `CC(C)[C@@H]1NC(=O)[C@@H](NC(=O)[C@H](CCCCN)NC(=O)[C@H](CCCCN)NC(=O)[C@@H](N)CCCCN)CCSCC(=O)NCC[C@@H](C(=O)O)NC(=O)[C@H](Cc2ccccc2)NC(=O)[C@H]([C@@H](C)O)NC(=O)[C@H](CC(=O)O)NC(=O)CNC(=O)[C@H](CCCNC(=N)N)NC(=O)[C@@H]2CCCN2C1=O` [Cyclic peptide 64, KKK-(Hcy)-VPRGDTF(Dab(acetyl))] (H-KKK[hCys]VPRGDTF[Dab]-OH; linker 4-12 via X2), the “Performance evaluation: Stability (residual rate of cyclic peptide after alkali treatment)” value in series [1] is “A (The residual rate of the cyclic peptide is 70% or more.)”. Also, the Kd in series [2] was less than 50 nM.
Turning to `CC[C@H](C)[C@@H]1NC(=O)[C@@H](NC(=O)[C@H](CCCCN)NC(=O)[C@H](CCCCN)NC(=O)[C@@H](N)CCCCN)CCSCC(=O)NCC[C@@H](C(=O)O)NC(=O)[C@H](Cc2ccccc2)NC(=O)[C@H](C(C)C)NC(=O)[C@H](CC(=O)O)NC(=O)CNC(=O)[C@H](CCCNC(=N)N)NC(=O)[C@@H]2CCCN2C1=O` [Cyclic peptide 65, KKK-(Hcy)-IPRGDVF(Dab(acetyl))] (H-KKK[hCys]IPRGDVF[Dab]-OH; linker 4-12 via X2), in series [1], the “Performance evaluation: Stability (residual rate of cyclic peptide after alkali treatment)” value is on record as “A (The residual rate of the cyclic peptide is 70% or more.)”. In series [2], the Kd fell in the range of 50 to 100 nM.
With `CC(C)[C@@H]1NC(=O)[C@H](CC(=O)O)NC(=O)CNC(=O)[C@H](CCCNC(=N)N)NC(=O)[C@@H]2CCCN2C(=O)[C@H](C(C)C)NC(=O)[C@@H](NC(=O)[C@H](CCCCN)NC(=O)[C@H](CCCCN)NC(=O)[C@@H](N)CCCCN)CCSCC(=O)NCC[C@@H](C(=O)O)NC(=O)[C@H](Cc2ccccc2)NC1=O` [Cyclic peptide 66, KKK-(Hcy)-VPRGDVF(Dab(acetyl))] (H-KKK[hCys]VPRGDVF[Dab]-OH; linker 4-12 via X2), the “Performance evaluation: Stability (residual rate of cyclic peptide after alkali treatment)” value in series [1] is “A (The residual rate of the cyclic peptide is 70% or more.)”. For the same compound, the Kd in series [2] is less than 50 nM.
For the compound `CC[C@H](C)[C@@H]1NC(=O)[C@H](C)NC(=O)[C@@H](NC(=O)CNC(=O)[C@H](CCCCN)NC(=O)[C@H](CCCCN)NC(=O)[C@@H](N)CCCCN)CCSCC(=O)NCC[C@@H](C(=O)N[C@@H](C)C(=O)O)NC(=O)[C@H](C)NC(=O)[C@H](CCCNC(=N)N)NC(=O)[C@H](Cc2ccccc2)NC(=O)[C@H]([C@@H](C)O)NC(=O)[C@H](CC(=O)O)NC(=O)CNC(=O)[C@H](CCCNC(=N)N)NC(=O)[C@@H]2CCCN2C1=O` [Cyclic peptide 67, KKKG-(Hcy)-AIPRGDTFRA(Dab(acetyl))A] (H-KKKG[hCys]AIPRGDTFRA[Dab]A-OH; linker 5-16 via X2), in series [1], the “Performance evaluation: Stability (residual rate of cyclic peptide after alkali treatment)” value is “A (The residual rate of the cyclic peptide is 70% or more.)”. The Kd in series [2] is less than 50 nM.
As for `C[C@H](NC(=O)[C@@H]1CCNC(=O)CSCC[C@H](NC(=O)CNC(=O)[C@H](CCCCN)NC(=O)[C@H](CCCCN)NC(=O)[C@@H](N)CCCCN)C(=O)N[C@@H](CCC(=O)O)C(=O)N2CCC[C@H]2C(=O)N[C@@H](CCCNC(=N)N)C(=O)NCC(=O)N[C@@H](CC(=O)O)C(=O)N[C@@H]([C@@H](C)O)C(=O)N[C@@H](Cc2ccccc2)C(=O)N[C@@H](CCCNC(=N)N)C(=O)N1)C(=O)O` [Cyclic peptide 69, KKKG-(Hcy)-EPRGDTFR(Dab(acetyl))A] (H-KKKG[hCys]EPRGDTFR[Dab]A-OH; linker 5-14 via X2), the “Performance evaluation: Stability (residual rate of cyclic peptide after alkali treatment)” value in series [1] was “A (The residual rate of the cyclic peptide is 70% or more.)”. The Kd in series [2] is less than 50 nM.
For the compound `CC(C)[C@@H]1NC(=O)[C@@H](NC(=O)CNC(=O)[C@H](CCCCN)NC(=O)[C@H](CCCCN)NC(=O)[C@@H](N)CCCCN)CCSCC(=O)NCC[C@@H](C(=O)N[C@@H](C)C(=O)O)NC(=O)[C@H](CCCNC(=N)N)NC(=O)[C@H](Cc2ccccc2)NC(=O)[C@H]([C@@H](C)O)NC(=O)[C@H](CC(=O)O)NC(=O)CNC(=O)[C@H](CCCNC(=N)N)NC(=O)[C@@H]2CCCN2C1=O` [Cyclic peptide 70, KKKG-(Hcy)-VPRGDTFR(Dab(acetyl))A] (H-KKKG[hCys]VPRGDTFR[Dab]A-OH; linker 5-14 via X2), the “Performance evaluation: Stability (residual rate of cyclic peptide after alkali treatment)” value in series [1] is “A (The residual rate of the cyclic peptide is 70% or more.)”. Also, in series [2], the Kd was less than 50 nM.
As to `CC(C)C[C@@H]1NC(=O)[C@@H](NC(=O)CNC(=O)[C@H](CCCCN)NC(=O)[C@H](CCCCN)NC(=O)[C@@H](N)CCCCN)CCSCC(=O)NCC[C@@H](C(=O)N[C@@H](C)C(=O)O)NC(=O)[C@H](CCCNC(=N)N)NC(=O)[C@H](Cc2ccccc2)NC(=O)[C@H]([C@@H](C)O)NC(=O)[C@H](CC(=O)O)NC(=O)CNC(=O)[C@H](CCCNC(=N)N)NC(=O)[C@@H]2CCCN2C1=O` [Cyclic peptide 71, KKKG-(Hcy)-LPRGDTFR(Dab(acetyl))A] (H-KKKG[hCys]LPRGDTFR[Dab]A-OH; linker 5-14 via X2), the “Performance evaluation: Stability (residual rate of cyclic peptide after alkali treatment)” value in series [1] is listed as “A (The residual rate of the cyclic peptide is 70% or more.)”. In series [2], the Kd was less than 50 nM.
The matching figures for `CC[C@H](C)[C@@H]1NC(=O)[C@@H](NC(=O)CNC(=O)[C@H](CCCCN)NC(=O)[C@H](CCCCN)NC(=O)[C@@H](N)CCCCN)CCSCC(=O)NCC[C@@H](C(=O)N[C@@H](C)C(=O)O)NC(=O)[C@H](CCCNC(=N)N)NC(=O)[C@H](Cc2ccccc2)NC(=O)[C@H](CO)NC(=O)[C@H](CC(=O)O)NC(=O)CNC(=O)[C@H](CCCNC(=N)N)NC(=O)[C@@H]2CCCN2C1=O` [Cyclic peptide 72, KKKG-(Hcy)-IPRGDSFR(Dab(acetyl))A] (H-KKKG[hCys]IPRGDSFR[Dab]A-OH; linker 5-14 via X2): “A (The residual rate of the cyclic peptide is 70% or more.)” and 50 to 100 nM.
Consider `CC(C)[C@@H]1NC(=O)[C@@H](NC(=O)[C@H](C)NC(=O)[C@H](CCCCN)NC(=O)[C@H](CCCCN)NC(=O)[C@@H](N)CCCCN)CCSCC(=O)NCC[C@@H](C(=O)N[C@@H](C)C(=O)O)NC(=O)[C@H](CCCNC(=N)N)NC(=O)[C@H](Cc2ccccc2)NC(=O)[C@H]([C@@H](C)O)NC(=O)[C@H](CC(=O)O)NC(=O)CNC(=O)[C@H](CCCNC(=N)N)NC(=O)[C@@H]2CCCN2C1=O` [Cyclic peptide 74, KKKA-(Hcy)-VPRGDTFR(Dab(acetyl))A] (H-KKKA[hCys]VPRGDTFR[Dab]A-OH; linker 5-14 via X2), for which the “Performance evaluation: Stability (residual rate of cyclic peptide after alkali treatment)” value in series [1] is on record as “A (The residual rate of the cyclic peptide is 70% or more.)”. The Kd in series [2] was less than 50 nM.
Regarding `C[C@H](NC(=O)[C@@H]1CCNC(=O)CSCC[C@H](NC(=O)[C@H](C)NC(=O)[C@H](CCCCN)NC(=O)[C@H](CCCCN)NC(=O)[C@@H](N)CCCCN)C(=O)N[C@@H]([C@@H](C)O)C(=O)N2CCC[C@H]2C(=O)N[C@@H](CCCNC(=N)N)C(=O)NCC(=O)N[C@@H](CC(=O)O)C(=O)N[C@@H]([C@@H](C)O)C(=O)N[C@@H](Cc2ccccc2)C(=O)N[C@@H](CCCNC(=N)N)C(=O)N1)C(=O)O` [Cyclic peptide 75, KKKA-(Hcy)-TPRGDTFR(Dab(acetyl))A] (H-KKKA[hCys]TPRGDTFR[Dab]A-OH; linker 5-14 via X2), the “Performance evaluation: Stability (residual rate of cyclic peptide after alkali treatment)” value in series [1] is reported as “A (The residual rate of the cyclic peptide is 70% or more.)”. In series [2], the Kd is less than 50 nM.
Turning to `CC[C@H](C)[C@@H]1NC(=O)[C@@H](NC(=O)[C@H](C)NC(=O)[C@H](CCCCN)NC(=O)[C@H](CCCCN)NC(=O)[C@@H](N)CCCCN)CCSCC(=O)NCC[C@@H](C(=O)N[C@@H](C)C(=O)O)NC(=O)[C@H](CCCNC(=N)N)NC(=O)[C@H](Cc2ccccc2)NC(=O)[C@H]([C@@H](C)O)NC(=O)[C@H](CC(=O)O)NC(=O)CNC(=O)[C@H](CCCNC(=N)N)NC(=O)[C@H]([C@@H](C)O)NC1=O` [Cyclic peptide 76, KKKA-(Hcy)-ITRGDTFR(Dab(acetyl))A] (H-KKKA[hCys]ITRGDTFR[Dab]A-OH; linker 5-14 via X2), the “Performance evaluation: Stability (residual rate of cyclic peptide after alkali treatment)” value in series [1] was “A (The residual rate of the cyclic peptide is 70% or more.)”. For the same compound, the Kd in series [2] was 50 to 100 nM.
The matching figures for `CC[C@H](C)[C@@H]1NC(=O)[C@@H](NC(=O)[C@H](C)NC(=O)[C@H](CCCCN)NC(=O)[C@H](CCCCN)NC(=O)[C@@H](N)CCCCN)CCSCC(=O)NCC[C@@H](C(=O)N[C@@H](C)C(=O)O)NC(=O)[C@H](CCCNC(=N)N)NC(=O)[C@H](Cc2ccccc2)NC(=O)[C@H]([C@@H](C)O)NC(=O)[C@H](CC(=O)O)NC(=O)CNC(=O)[C@H](CCCNC(=N)N)NC(=O)[C@H](CO)NC1=O` [Cyclic peptide 77, KKKA-(Hcy)-ISRGDTFR(Dab(acetyl))A] (H-KKKA[hCys]ISRGDTFR[Dab]A-OH; linker 5-14 via X2): “A (The residual rate of the cyclic peptide is 70% or more.)” and less than 50 nM.
In the same order, the values of `CC[C@H](C)[C@@H]1NC(=O)[C@@H](NC(=O)[C@H](C)NC(=O)[C@H](CCCCN)NC(=O)[C@H](CCCCN)NC(=O)[C@@H](N)CCCCN)CCSCC(=O)NCC[C@@H](C(=O)N[C@@H](C)C(=O)O)NC(=O)[C@H](CCCNC(=N)N)NC(=O)[C@H](Cc2ccccc2)NC(=O)[C@H](C(C)C)NC(=O)[C@H](CC(=O)O)NC(=O)CNC(=O)[C@H](CCCNC(=N)N)NC(=O)[C@@H]2CCCN2C1=O` [Cyclic peptide 78, KKKA-(Hcy)-IPRGDVFR(Dab(acetyl))A] (H-KKKA[hCys]IPRGDVFR[Dab]A-OH; linker 5-14 via X2) are “A (The residual rate of the cyclic peptide is 70% or more.)” and less than 50 nM.

Source of the values: patent US12673975B2, “Cyclic peptide, cell scaffold material, cell separating material, and medium” (FUJIFILM Corporation, priority 2019, dated 2026).
